Data as given in US7223793B2, “Phenolic acid derivatives and composition for preventing or treating blood lipid level-related diseases comprising the same” (Bionutrigen Co., Ltd., priority 2001, dated 2007).
Marks after values point to notes of the source that are not given here.

Legend:
Sprague-Dawley rats = assay: Effect on blood lipid level in rats fed high-cholesterol diet (Experimental Example 1); type: in vivo, rat; conditions: rats on 1% cholesterol diet, 5 weeks; for Atherogenic index (AI): (total cholesterol − HDL cholesterol)/HDL cholesterol; for HDL-cholesterol/total cholesterol / HDL-cholesterol / Total cholesterol / Triglyceride: plasma, 0.02% lovastatin or 0.046% BN30028 in diet; for HDL-cholesterol / Total cholesterol / Triglyceride: average ± standard deviation
Excerpt: 30 of 4-week-old male white Sprague-Dawley rats (Bio Genomics Inc., Korea), each weighing about […], were divided into three groups by a randomized block design. The rats of the three groups were fed with three different high-cholesterol diets, i.e., AIN-76 laboratory animal diets (TEKLAD premier Co., Madison, Wis., U.S.A.) containing 1% cholesterol (Control group), 1% cholesterol plus 0.02% lovastatin (Choongwae Pharma. Corp., Korea) and 1% cholesterol plus 0.046% BN30028, respectively, as shown in Table I.
The rats were allowed free access to the specified diets and water for 5 weeks and the ingestion amounts were recorded daily. The rats were weighed every 5 days, and then the record was analyzed.
Blood samples were taken from vena hypogastrica of the rats of the three dietary groups raised in Step 1 and centrifuged to separate plasma. The total cholesterol level was measured by using a diagnosis kit purchased from Sigma (USA), Cat. No.: C0534, applying the method of Allain et al. (Allain et al., Clin. Chem., 20, 470-475 (1974)). The HDL fraction was separated by using a kit purchased from Sigma, Cat. No.: 352-1 applying the heparin-manganese precipitation method (Waenic R. G. and Albers J. J., J Lipid Res., 19, 65-76 (1978)) and the HDL-cholesterol level was measured by using a kit purchased from Sigma, Cat. No.: C9908. The triglyceride level was measured using a kit purchased from Sigma, Cat. No.: 336-10) applying the lipase-glycerol phosphate oxidase method (McGowan, M. W. et al., Clin. Chem., 29, 538-542(1983)). All the data are expressed by average±standard deviation.

[1] = test system: New Zealand White rabbits; assay: Fatty streak in the main artery of cholesterol-fed rabbits (Experimental Example 2); type: in vivo, rabbit; conditions: 8 weeks; for Proportion of stained region (fatty streak region) per unit area of the main artery: 1% cholesterol + RC4 diet, lovastatin 1 mg/kg or BN30028 0.05 wt %, Oil Red O, average ± standard deviation; for Proportion of the fatty streak region compared to the control group / Arterial endothelium, macrophage-lipid complex / atherosclerotic plaque (photographs): 1% cholesterol diet; for Arterial endothelium, macrophage-lipid complex / atherosclerotic plaque (photographs): FIGS. 1a-1c
Protocol: The rabbits raised in Step 1 were sacrificed and their chests were incised. The incision was performed downward to the diaphragm along the aortic arch and the fat surrounding the main artery was removed. The main artery was incised in the middle along the longitudinal axis from the second aortic intercostal artery anastomoses to the seventh aortic intercostal artery anastomoses and fixed with 10% neutral buffered formalin for 24 hours. Then, the incised main artery was pinned to a dish for staining of fatty streaks according to the method of Esper, E., et al. (J. Lab. Clin. Med., 121, 103-110 (1993)). The staining carried out by washing the artery three times with propylene glycol for 2 minutes respectively. The artery was stained for 30 minutes with a saturated solution of Oil Red O (ORO, Sigma Co.) dissolved in propylene glycol. Thereafter, the artery was washed twice with 85% propylene glycol for 3 minutes respectively to remove the remaining staining solution and, then once with physiological saline. The artery was photographed and the photograph was traced. The proportion (%) of stained region (fatty streak region) per unit area of the main artery was determined with an image analyzer (LEICA, Q-600, Germany). The significant differences between the test groups were tested by student t-test using Microsoft excel (version 7.0) program

ICR mice = assay: Acute oral toxicity in mice (Experimental Example 5); type: in vivo
Protocol: The toxicity of orally administered BN30028 was tested as follows. Four-week-old specific pathogen-free ICR mice, 12 female mice and 12 male mice, were kept in a room under conditions of 22±3° C., 55±10% relative humidity and 12L/12D photoperiod. The mice was acclimated for one week before using in experiment. Fodder (Cheiljedang Co., mouse and rat fodder) and water were sterilized and freely fed to the mice.
BN30028 was dissolved in 0.5% Tween 80 to a concentration of […] and the solution was orally administered to the mice in an amount of 0.2 mL (1 g/kg), 0.4 mL (2 g/kg) or 0.8 mL (4 g/kg) per 20 g of mouse body weight. The solution was administered once for the 1 g/kg and 2 g/kg groups and twice for the 4 g/kg group. […] Also, on the 7th day, the mice were sacrificed and the internal organs were visually examined. From the day of the administration, the weight changes of the animals were recorded every other day to examine the effect of BN30028 on the reduction of body weight of animals.

Row | SMILES | Atherogenic index (AI) (Sprague-Dawley rats) | HDL-cholesterol/total cholesterol (Sprague-Dawley rats) [%] | HDL-cholesterol (Sprague-Dawley rats) [mg/dL] | Total cholesterol (Sprague-Dawley rats) [mg/dL] | Triglyceride (Sprague-Dawley rats) [mg/dL] | Reduction of total plasma cholesterol level as compared to the control group (Sprague-Dawley rats) [%] | Reduction of triglyceride as compared to the control group (Sprague-Dawley rats) [%] | Proportion of stained region (fatty streak region) per unit area of the main artery [1] | Proportion of the fatty streak region compared to the control group [1] | Arterial endothelium, macrophage-lipid complex / atherosclerotic plaque (photographs) [1] | Body weight change (ICR mice; oral 1 g/kg, 2 g/kg and 4 g/kg, 7 days after the administration) | LD50 (ICR mice; orally administered, female and male mice) | Increase of triglyceride as compared to the control group (Sprague-Dawley rats) [%]
1 | COC(=O)C(Cc1ccccc1)NC(=O)CCc1ccc(O)c(O)c1 (stereo not shown) [BN30028, 2-[3-(3,4-dihydroxyphenyl)propionylamino]-3-phenyl propionic acid methyl ester] | 1.84 ± 0.2 | 35.1 ± 0.6 | 25.6 ± 0.6 | 72.8 ± 3.7 | 47.6 ± 1.6 | 12 | 15 | 16.1 ± 9.6^b % | significantly reduced | clean | normal weight increase without any weight loss | more than 4 g/kg body weight | 
2 | CC[C@H](C)C(=O)O[C@H]1C[C@@H](C)C=C2C=C[C@H](C)[C@H](CC[C@@H]3C[C@@H](O)CC(=O)O3)[C@H]21 [Lovastatin, reference compound] | 2.3 ± 0.2 | 30.2 ± 0.5 | 23.4 ± 0.4 | 77.4 ± 1.8 | 69.0 ± 4.7 | 6 |  | 18.2 ± 10.4^b % | significantly reduced | clean |  |  | 25
